Laboratory results taken from the supplement of paper PMC10307832.

Columns and labels:
Test in all cases: relative viability (nuclei count vs DMSO), 5 days (fraction); higher = more cells survive
CUDC-101 + Tozasertib = compound: C#Cc1cccc(Nc2ncnc3cc(OC)c(OCCCCCCC(=O)NO)cc23)c1 [CUDC-101] + Cc1cc(Nc2cc(N3CCN(C)CC3)nc(Sc3ccc(NC(=O)C4CC4)cc3)n2)n[nH]1 [Tozasertib] (partner 0.1 µM)
Outline: (§1)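 Lung cancer cell lines were seeded in 1536-well plates and dosed by pin tool the next day, with either a single drug or a fixed anchor-drug dose combined with five library-drug doses (not always all listed) spaced in √10 steps. Five days later, one step fixed the cells and stained their nuclei (final 0.05% Triton X-100, 1% formaldehyde, 1 ug/ml Hoechst), and nuclei were counted on 4× images. Relative viability is the nuclei count in treated wells divided by the count in vehicle wells, and each value is the median of duplicate plates.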

CUDC-101 + OSI-027 = compound: C#Cc1cccc(Nc2ncnc3cc(OC)c(OCCCCCCC(=O)NO)cc23)c1 [CUDC-101] + COc1cccc2cc(-c3nc([C@H]4CC[C@H](C(=O)O)CC4)n4ncnc(N)c34)[nH]c12 [OSI-027] (partner 0.5 µM)
Outline: as §1

Vandetanib + Olaparib = compound: COc1cc2/c(=N/c3ccc(Br)cc3F)nc[nH]c2cc1OCC1CCN(C)CC1 [Vandetanib] + O=C(c1cc(Cc2n[nH]c(=O)c3ccccc23)ccc1F)N1CCN(C(=O)C2CC2)CC1 [Olaparib] (partner 8 µM)
Outline: as §1

CUDC-101 + Foretinib = compound: C#Cc1cccc(Nc2ncnc3cc(OC)c(OCCCCCCC(=O)NO)cc23)c1 [CUDC-101] + COc1cc2c(Oc3ccc(NC(=O)C4(C(=O)Nc5ccc(F)cc5)CC4)cc3F)ccnc2cc1OCCCN1CCOCC1 [Foretinib] (partner 0.25 µM)
Outline: as §1

Row | Cell Line | relative viability (CUDC-101 + Tozasertib; first compound 0.01 µM) | relative viability (CUDC-101 + Tozasertib; first compound 0.03162 µM) | relative viability (CUDC-101 + Tozasertib; first compound 0.1 µM) | relative viability (CUDC-101 + Tozasertib; first compound 0.3162 µM) | relative viability (CUDC-101 + Tozasertib; first compound 1 µM) | relative viability (CUDC-101 + OSI-027; first compound 0.01 µM) | relative viability (CUDC-101 + OSI-027; first compound 0.03162 µM) | relative viability (CUDC-101 + OSI-027; first compound 0.1 µM) | relative viability (CUDC-101 + OSI-027; first compound 0.3162 µM) | relative viability (CUDC-101 + OSI-027; first compound 1 µM) | relative viability (Vandetanib + Olaparib; first compound 0.02 µM) | relative viability (Vandetanib + Olaparib; first compound 0.06325 µM) | relative viability (Vandetanib + Olaparib; first compound 0.2 µM) | relative viability (Vandetanib + Olaparib; first compound 0.6325 µM) | relative viability (Vandetanib + Olaparib; first compound 2 µM) | relative viability (CUDC-101 + Foretinib; first compound 0.01 µM) | relative viability (CUDC-101 + Foretinib; first compound 0.03162 µM) | relative viability (CUDC-101 + Foretinib; first compound 0.1 µM) | relative viability (CUDC-101 + Foretinib; first compound 0.3162 µM) | relative viability (CUDC-101 + Foretinib; first compound 1 µM)
1 | HCC-44 | 0.795 | 0.899 | 0.999 | 0.917 | 0.7 | 0.527 | 0.685 | 0.587 | 0.586 | 0.295 | 0.914 | 0.944 | 0.948 | 0.973 | 1 | – | – | – | – | –
2 | EKVX | 0.392 | 0.32 | 0.394 | 0.366 | 0.295 | 0.649 | 0.696 | 0.694 | 0.798 | 0.579 | 0.854 | 0.761 | 0.904 | 0.813 | 0.563 | 0.976 | 0.639 | 0.681 | 1.18 | 0.859
3 | NCI-H23 | 0.34 | 0.315 | 0.288 | 0.384 | 0.574 | 0.71 | 0.647 | 0.631 | 0.607 | 0.509 | 0.346 | 0.275 | 0.328 | 0.343 | 0.335 | 1.06 | 1 | 1.04 | 1.06 | 0.949
4 | NCI-H2347 | 0.561 | 0.614 | 0.608 | 0.583 | 0.499 | 0.313 | 0.38 | 0.402 | 0.469 | 0.25 | 0.538 | 0.525 | 0.596 | 0.692 | 0.553 | 0.888 | 0.948 | 0.902 | 0.99 | 0.689
5 | SK-LU-1 | 0.336 | 0.322 | 0.367 | 0.309 | 0.269 | 0.356 | 0.332 | 0.431 | 0.402 | 0.325 | 0.496 | 0.313 | 0.54 | 0.437 | 0.597 | 0.885 | 0.793 | 0.891 | 0.771 | 0.662
6 | A549 | – | – | – | – | – | – | – | – | – | – | 0.234 | 0.368 | 0.349 | 0.291 | 0.356 | 0.985 | 1 | 0.907 | 1.02 | 0.769
7 | LU99A | 0.273 | 0.269 | 0.242 | 0.277 | 0.273 | 0.297 | 0.305 | 0.302 | 0.289 | 0.239 | 0.251 | 0.301 | 0.173 | 0.209 | 0.272 | 0.931 | 0.881 | 0.684 | 0.798 | 0.388
8 | NCI-H596 | 0.632 | 0.716 | 0.871 | 0.917 | 0.819 | 0.655 | 0.715 | 0.783 | 0.805 | 0.751 | 0.616 | 0.62 | 0.726 | 0.655 | 0.705 | 0.862 | 0.902 | 0.787 | 0.752 | 0.729
9 | A-427 | 0.211 | 0.227 | 0.219 | 0.205 | 0.165 | 0.464 | 0.486 | 0.351 | 0.473 | 0.308 | 0.735 | 0.852 | 0.71 | 0.711 | 0.694 | 1.01 | 0.975 | 1.01 | 1.06 | 0.877
